According to article PMC3688941, “Characterization of a Chitin-Binding Protein from Bacillus thuringiensis HD-1” (PLoS ONE, 2013):

Key:
[1] = tested on: Ha-Chitinase; assay: fluorometric chitinase assay; assay type: biochemical, Helicoverpa armigera; details: 50 mM sodium phosphate pH 7.0, 30 °C, 20 min; without Bt-CBP21; footnote gives substrate as 50 µM
Source text: fluorometric chitinase assay on Ha-Chitinase

[2] = tested on: T1, Bt-Chitinase; assay: fluorometric chitinase assay; assay type: biochemical, Bacillus thuringiensis serovar kurstaki; details: 50 mM sodium phosphate pH 7.0, 30 °C, 20 min; without Bt-CBP21; footnote gives substrate as 50 µM
T1 construct: EC 3.2.1.14
Source text: fluorometric chitinase assay on Bt-Chitinase

Work on `CC(=O)N[C@H]1[C@H](Oc2ccc3c(C)cc(=O)oc3c2)O[C@H](CO)[C@@H](O[C@@H]2O[C@H](CO)[C@@H](O)[C@H](O)[C@H]2NC(C)=O)[C@@H]1O` [4-MU-(GlcNAc)2] yielded a Km [1] of 1.4 µM and a Km [2] of 30 µM.
